In patent US20240140935A1, “NON-COVALENT DIMER CATION, SALT THEREOF, PREPARATION METHOD THEREOF, AND USE THEREOF AS ANTIOXIDANT” (SUZHOU PROTONATION CHAIN BIOTECHNOLOGY CO., LTD., priority 2022, published 2024):

What was measured:
[1] = system: L02 human normal hepatocytes; assay: Carbon tetrachloride hepatotoxicity cell model, levels of ROS, MDA, GSH, SOD and ATP in cell lysate; assay type: cell-based
Description: (§1) The salts of Example 1, Example 16, and Example 13 were taken as the compound of experimental groups, vitamin E was taken as the compound of control group. A blank group (without carbon tetrachloride) and a model group (with carbon tetrachloride but with neither the salt of the present application nor vitamin E) were also set.
L02 human normal hepatocytes were uniformly inoculated into a 96-well plate, about 5,000 cells per well. The cells were cultured in a complete DMEM for 6 h. After the cells were completely adhered to the wall, all the media were removed, 100 μL of serum-free DMEM containing 0.02 mg/mL carbon tetrachloride (for the blank group, a serum-free medium without carbon tetrachloride) was added to each well, and the cells were cultured for 12 h. Then, all the media were removed, 100 μL of serum-free DMEM containing […] compound of experimental groups or control group was added to each well (for the blank group and the model group, serum-free DMEM without the compound) according to the groups, and the cells were cultured for 24 h.
(§2) 50 μL of RIPA lysis buffer (strong) was added to each well to lyse the cells, and levels of reactive oxygen species, malondialdehyde, glutathione, superoxide dismutase, and adenosine triphosphate in the cells of each group were detected by using corresponding chemical reagents.

[2] = system: L02 human normal hepatocytes; assay: Palmitate-induced non-alcoholic fatty liver disease cell model, levels of ROS, MDA, GSH, SOD and ATP in cell lysate; assay type: cell-based
Description: as §1, with “palmitate)” for “carbon tetrachloride)”, “palmitate” for “carbon tetrachloride”
L02 human normal hepatocytes were uniformly inoculated into a 96-well plate, about 5,000 cells per well. The cells were cultured in a complete DMEM for 6 h. After the cells were completely adhered to the wall, all the media were removed, 100 μL of serum-free medium containing 0.05 mg/mL palmitate was added to each well (for the blank group, a serum-free medium without palmitate), and the cells were cultured for 24 h.
Then, all the media were removed, 100 μL of serum-free DMEM containing […] compound of experimental groups or control group was added to each well (for the blank group and the model group, serum-free DMEM without the compound) according to the groups, and the cells were cultured for 24 h.
as §2

vitamin E
only partially increase: level of ATP in the cells ([1]; FIG. 6 (e)) | level of ATP in the cells ([2]; FIG. 4 (e))
only slightly reduce: level of ROS in the cells ([1]; FIG. 6 (a)) | level of MDA in the cells ([1]; FIG. 6 (b)) | level of ROS in the cells ([2]; FIG. 4 (a)) | level of MDA in the cells ([2]; FIG. 4 (b))
only slightly increase: level of GSH in the cells ([1]; FIG. 6 (c)) | level of SOD in the cells ([1]; FIG. 6 (d)) | level of GSH in the cells ([2]; FIG. 4 (c)) | level of SOD in the cells ([2]; FIG. 4 (d))
